The values that follow come from ChEMBL document CHEMBL2150920, “Discovery of a potent and selective small molecule hGPR91 antagonist” (Bioorg Med Chem Lett, 2011).

Series [1] can be described thus: Plasma concentration in Wistar rat plasma at 50 mg/kg, ip at 8 hrs. The format is ADME, organism-based. On the set-up: dose 50 mg/kg, route intraperitoneal.
Series [2] can be described thus: AUC (0 to 8 hrs) in Wistar rat plasma at 50 mg/kg, ip. The format is ADME, organism-based. On the set-up: time < 8 hr, dose 50 mg/kg, route intraperitoneal.
Series [3] is described as follows: Cmax in Wistar rat at 5 mg/kg, iv by LC/MS/MS analysis. The conditions noted are these: in vivo. The format is ADME, organism-based. Further details: dose 5 mg/kg, route intravenous.
In series [4] the target is T1, Succinate receptor 1 (Homo sapiens, UniProt Q9BXA5).
T1 sequence (Q9BXA5 whole entry): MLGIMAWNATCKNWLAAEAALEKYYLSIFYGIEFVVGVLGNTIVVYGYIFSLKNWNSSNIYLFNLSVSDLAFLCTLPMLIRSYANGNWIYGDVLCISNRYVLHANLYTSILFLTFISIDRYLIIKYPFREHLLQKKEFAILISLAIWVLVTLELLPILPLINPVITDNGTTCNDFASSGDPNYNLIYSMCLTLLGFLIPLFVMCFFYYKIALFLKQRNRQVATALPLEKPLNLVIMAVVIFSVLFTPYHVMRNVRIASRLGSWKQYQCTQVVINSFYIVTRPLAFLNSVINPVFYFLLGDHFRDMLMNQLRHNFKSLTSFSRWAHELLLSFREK
The series can be described thus: Antagonist activity at human GPR91 receptor expressed in CHO-K1 cells co-expressing Galpha and Gqi5 G-protein assessed as inhibition of succinate-induced increase in intracellular calcium level by FLIPR assay. Format: functional, cell-based. A general note: A change in cytosolic calcium serves as a functional read-out for many receptors and channels.

Series [5] in a line: Plasma clearance in Wistar rat at 5 mg/kg, iv. The format is ADME, organism-based. On the set-up: dose 5 mg/kg, route intravenous.
A further series has as its system Liver microsomes. The series can be described thus: Intrinsic clearance in rat liver microsomes preincubated for 5 mins before addition of NADPH measured after 30 mins by LC/MS/MS analysis. Particulars: 0.5 h. Format: ADME, Microsome. (Liver microsomes are a subcellular fraction often used to study metabolism.)
Series [6] in a line: Volume of distribution at steady state in Wistar rat at 5 mg/kg, iv. On the set-up: dose 5 mg/kg, route intravenous. The conditions noted are these: in vivo, read-out: Vdss. The format is ADME, organism-based.
In series [7] the target is T2, Succinate receptor 1 (Rattus norvegicus, UniProt Q6IYF9).
T2 sequence (Q6IYF9 whole entry): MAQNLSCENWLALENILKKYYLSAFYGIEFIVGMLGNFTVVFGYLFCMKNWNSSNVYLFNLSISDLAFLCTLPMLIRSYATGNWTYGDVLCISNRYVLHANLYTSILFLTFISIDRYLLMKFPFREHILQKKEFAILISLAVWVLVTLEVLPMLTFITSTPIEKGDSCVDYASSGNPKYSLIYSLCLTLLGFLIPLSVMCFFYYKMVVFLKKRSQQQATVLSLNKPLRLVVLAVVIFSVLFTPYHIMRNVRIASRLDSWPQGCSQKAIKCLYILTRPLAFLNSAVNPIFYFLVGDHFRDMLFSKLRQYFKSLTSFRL
Put plainly: Antagonist activity at rat GPR91 receptor expressed in CHO-K1 cells co-expressing Galpha and Gqi5 G-protein assessed as inhibition of succinate-induced increase in intracellular calcium level by FLIPR assay. The format is functional, cell-based.

Series [8] is described as follows: Tmax in Wistar rat at 50 mg/kg, ip. Format: ADME, organism-based. Further details: dose 50 mg/kg, route intraperitoneal. Particulars: in vivo.
A short description of series [9]: Terminal half life in Wistar rat at 5 mg/kg, iv. Further details: dose 5 mg/kg, route intravenous. The format is ADME, organism-based. The conditions noted are these: in vivo, read-out: beta t1/2 (converted).
Series [10] has as its target 2-oxoglutarate receptor 1 (Homo sapiens, UniProt Q96P68). The series can be described thus: Antagonist activity at human GPR99 receptor expressed in CHO-K1 cells co-expressing Galpha and Gqi5 G-protein assessed as inhibition of succinate-induced increase in intracellular calcium level at by FLIPR assay. Format: functional, cell-based.
Series [11] in a line: Cmax in Wistar rat at 50 mg/kg, ip by LC/MS/MS analysis. The format is ADME, organism-based. On the set-up: dose 50 mg/kg, route intraperitoneal. Particulars: in vivo.
The target of another series is T3, B1 bradykinin receptor (Homo sapiens, UniProt P46663).
T3 sequence (P46663 whole entry): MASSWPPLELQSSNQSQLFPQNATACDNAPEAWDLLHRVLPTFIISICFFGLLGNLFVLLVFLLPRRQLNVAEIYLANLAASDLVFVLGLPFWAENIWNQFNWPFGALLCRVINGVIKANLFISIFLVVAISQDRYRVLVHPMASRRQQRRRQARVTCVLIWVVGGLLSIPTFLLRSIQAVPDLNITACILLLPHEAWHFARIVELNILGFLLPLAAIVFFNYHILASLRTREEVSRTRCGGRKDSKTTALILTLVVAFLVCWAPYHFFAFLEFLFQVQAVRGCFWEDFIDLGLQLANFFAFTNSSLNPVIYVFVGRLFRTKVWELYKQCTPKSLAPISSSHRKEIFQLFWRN
Put plainly: Antagonist activity at human bradykinin B1 receptor expressed in […] cells assessed as inhibition of calcium flux by FLIPR assay. The format is functional, cell-based.

A short description of series [12]: Oral bioavailability in Wistar rat plasma at 30 mg/kg. The format is ADME, organism-based.
A short description of series [13]: Plasma concentration in Wistar rat plasma at 30 mg/kg, po at 2 hrs. The format is ADME, organism-based. On the set-up: dose 30 mg/kg, route oral.
Series [14] in a line: Terminal half life in Wistar rat plasma at 30 mg/kg, po. Format: ADME, organism-based. On the set-up: dose 30 mg/kg, route oral. The conditions noted are these: read-out: beta t1/2 (converted).
Series [15] can be described thus: Plasma concentration in Wistar rat plasma at 30 mg/kg, po at 4 hrs. Format: ADME, organism-based. Further details: dose 30 mg/kg, route oral.
Series [16] in a line: Tmax in Wistar rat at 30 mg/kg, po. On the set-up: dose 30 mg/kg, route oral. Format: ADME, organism-based. Particulars: in vivo.
A short description of series [17]: AUC (0 to 24 hrs) in Wistar rat plasma at 30 mg/kg, po. Further details: time < 24 hr, dose 30 mg/kg, route oral. The format is ADME, organism-based.
A short description of series [18]: Cmax in Wistar rat at 30 mg/kg, po by LC/MS/MS analysis. Particulars: in vivo. On the set-up: dose 30 mg/kg, route oral. Format: ADME, organism-based.
A short description of series [19]: Plasma concentration in Wistar rat plasma at 50 mg/kg, ip at 4 hrs. The format is ADME, organism-based. Further details: dose 50 mg/kg, route intraperitoneal.
Series [20] is described as follows: Plasma concentration in Wistar rat plasma at 50 mg/kg, ip at 2 hrs. Format: ADME, organism-based. Further details: dose 50 mg/kg, route intraperitoneal.

2-oxoglutarate receptor 1, sequence (Q96P68 whole entry, looked up): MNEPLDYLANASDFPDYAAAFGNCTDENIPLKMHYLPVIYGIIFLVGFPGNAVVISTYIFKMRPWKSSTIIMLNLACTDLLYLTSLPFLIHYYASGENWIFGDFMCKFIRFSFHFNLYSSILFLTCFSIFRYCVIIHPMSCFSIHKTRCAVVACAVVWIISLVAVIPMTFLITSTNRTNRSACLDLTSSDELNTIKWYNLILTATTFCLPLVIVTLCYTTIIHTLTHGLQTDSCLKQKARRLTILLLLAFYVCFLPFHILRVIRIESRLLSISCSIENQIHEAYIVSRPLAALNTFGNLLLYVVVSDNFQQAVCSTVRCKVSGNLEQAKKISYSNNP

Broadly, the AUC(0-t) is exposure summed from dosing to a finite time, without extrapolation to infinity. One may read the Cmax as the maximum level reached in the sampled fluid or tissue. What is called IC50 is the concentration at which inhibition is half-maximal. A word on the clearance: it is a measure of how efficiently the substance is removed, as volume per time. A higher clearance goes with efficient removal. What is called Tmax is the time from dosing to the highest level. In the case of `O=C(CCCc1ccc2cccnc2n1)NCc1ccc(-c2cccc(Cl)c2)cc1`, the concentration at 8 h in [1] is 15 µM. This compound also displayed an AUC(0-t) at 8 h in series [2] of 119 µM·h. The Cmax in [3] was 82.7 µM; in series [11] it was 17.8 µM. The concentration for half-maximal inhibition (IC50) at Succinate receptor 1 [4] is 40 nM; at Succinate receptor 1 [7], 115 nM; in series [10], 7 µM. Besides, in series [5], the clearance was 4.4 mL/min/kg. In the series on Liver microsomes, this compound displayed an Intrinsic clearance of 0.22 nmol/min/mg. The Vd in series [6] stood at 0.2 L/kg. Moreover, the time of peak concentration (Tmax) in series [8] is 3.3 h. In series [9], the half-life is 72 min.
For the compound `COC(=O)c1c(F)cccc1-c1ccc(CNC(=O)CCCc2ccc3cccnc3n2)c(F)c1`, the IC50 on B1 bradykinin receptor is 2500 nM; at Succinate receptor 1 [4], 800 nM. The same compound showed an Intrinsic clearance with Liver microsomes of 0.7 nmol/min/mg.
Broadly, the bioavailability is the share of a dose that reaches the circulation, judged against a reference dose that is usually intravenous. Lower therefore signals poor availability. In [12], `FC(F)(F)Oc1ccc(-c2nnc(CCCCc3ccc4cccnc4n3)o2)cc1Cl` displayed a bioavailability of 87%. The Cmax in [3] is 56 µM; in [18] it was 72 µM. This compound also registered a concentration at 2 h in [13] of 70 µM. For the same compound, the values for the IC50 (at Succinate receptor 1 [4]; in series [10]) were 180 nM and > 20 µM, respectively. In addition, the values for the half-life in series [14] and in [9] were 204 min and 78 min, respectively. This compound also returned a clearance in [5] of 2 mL/min/kg. In the series on Liver microsomes, this compound displayed an Intrinsic clearance of 0.17 nmol/min/mg. Moreover, in series [6], the Vd was determined as 0.2 L/kg. This compound gave a concentration at 4 h in series [15] of 40.5 µM. In addition, in series [16], the Tmax is 1.5 h. In [17], this compound yielded an exposure AUC(0-t) at 24 h of 472 µM·h.
Regarding `O=C(CCCc1ccc2cccnc2n1)NCc1cc(-c2ccc(F)c(C(F)(F)F)c2)no1`, the concentration at 8 h in series [1] worked out at 19 µM. In addition, the values for the concentration at 4 h in [19] and in series [15] were 19 µM and 2.6 µM, respectively. Moreover, the AUC(0-t) at 8 h in series [2] came to 267 µM·h. Besides, in [12], the bioavailability worked out at 26%. Moreover, the maximum concentration (Cmax) in series [3] amounted to 40 µM; in series [11], 22 µM; in series [18], 37 µM. The concentration at 2 h in series [13] stood at 11.3 µM; in [20], 22 µM. In addition, the values for the IC50 (at Succinate receptor 1 [4]; at Succinate receptor 1 [7]; in [10]) were 35 nM, 135 nM and > 30 µM, respectively. Besides, the figures for the half-life in series [14] and in series [9] were 54 min and 66 min, respectively. The clearance in series [5] came out at 4.7 mL/min/kg. Also, the Intrinsic clearance in the series on Liver microsomes is 0.12 nmol/min/mg. The Vd in series [6] is 0.36 L/kg. Besides, the Tmax in [8] came out at 2 h; in [16] it was 0.5 h. The compound further came in with an area under the curve AUC(0-t) at 24 h in series [17] of 69 µM·h.
